Data: patent US7332623B2 (Kaohsiung Medical University, priority 2003, dated 2008)
Entries after “also recorded” stand apart in the source; their conditions may differ. Like-named read-outs stand apart in the source and are kept apart here. Marks after values point to notes of the source that are not given here.

Assays:
CNS cancer cell SF-268 = assay: Preliminary cytotoxicity test; format: cell-based, human
Breast cancer cell MCF-7 = assay: Preliminary cytotoxicity test; format: cell-based, human
[1] = test system: Non-small cell Lung cancer cell NCI-H460; assay: Preliminary cytotoxicity test; format: cell-based, human
Hep2,2,15 = details: Hep2,2,15, Table 1; cited from earlier work
[2] = test system: NCI (NCI-H661): human lung large cell carcinoma; assay: In vitro anticancer assay (cytotoxicity), solid tumor cells
KB cell = details: Table 1; cited from earlier work
topoisomerase I = target: T1, topoisomerase I (Homo sapiens, UniProt P11387); assay: Topoisomerase I assay, cleavage of supercoiled pGEM9zf(−) DNA, gel electrophoresis; format: biochemical; details: for topo I inhibitor, overall conclusion: from FIGS. 1 and 2
T1 sequence (P11387 1-765): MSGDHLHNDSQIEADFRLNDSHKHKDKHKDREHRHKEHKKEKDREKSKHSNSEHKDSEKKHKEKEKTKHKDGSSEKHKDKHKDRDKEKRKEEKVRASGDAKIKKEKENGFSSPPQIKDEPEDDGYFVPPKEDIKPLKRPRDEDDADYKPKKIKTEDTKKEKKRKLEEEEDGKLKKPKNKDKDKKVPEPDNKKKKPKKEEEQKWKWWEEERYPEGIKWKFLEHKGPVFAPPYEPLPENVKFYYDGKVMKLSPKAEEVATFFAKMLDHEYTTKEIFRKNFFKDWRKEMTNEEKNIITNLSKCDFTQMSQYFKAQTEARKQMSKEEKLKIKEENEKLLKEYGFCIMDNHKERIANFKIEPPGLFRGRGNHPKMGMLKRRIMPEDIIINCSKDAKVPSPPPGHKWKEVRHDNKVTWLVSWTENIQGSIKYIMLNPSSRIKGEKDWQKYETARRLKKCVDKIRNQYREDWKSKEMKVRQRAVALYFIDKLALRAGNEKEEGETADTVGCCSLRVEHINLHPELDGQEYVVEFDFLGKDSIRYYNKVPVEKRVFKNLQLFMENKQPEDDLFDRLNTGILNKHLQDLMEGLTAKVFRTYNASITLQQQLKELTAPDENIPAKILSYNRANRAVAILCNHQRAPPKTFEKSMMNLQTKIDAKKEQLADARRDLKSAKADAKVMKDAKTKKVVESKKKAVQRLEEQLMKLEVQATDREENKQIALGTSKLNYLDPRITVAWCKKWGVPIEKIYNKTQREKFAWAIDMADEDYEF

[3] = test system: Hela: human cervix epitheloid carcinoma; assay: In vitro anticancer assay (cytotoxicity), solid tumor cells
[4] = test system: KB: human oral epidermoid carcinoma; assay: as above
[5] = test system: KB: human oral epidermoid carcinoma
[6] = test system: DLD (DLD-1): human colon adenocarcinoma
[7] = test system: Hela: human cervix epitheloid carcinoma
[8] = test system: Ovarian Cancer cell lines; assay: NCI panel, average of cell lines; details: Homo sapiens, read-out: cytotoxicity GI50, average value of all the cancer cell lines
[9] = test system: Prostate Cancer cell lines; assay: NCI panel, average of cell lines; details: Homo sapiens, read-out: cytotoxicity GI50, average value of all the cancer cell lines
[10] = test system: Non-Small Cell Lung Cancer cell lines; assay: NCI panel, average of cell lines; details: Homo sapiens, read-out: cytotoxicity GI50, average value of all the cancer cell lines
CNS Cancer cell lines = assay: NCI panel, average of cell lines; details: Homo sapiens, read-out: cytotoxicity GI50, average value of all the cancer cell lines
Breast Cancer cell lines = assay: NCI panel, average of cell lines; details: Homo sapiens, read-out: cytotoxicity GI50, average value of all the cancer cell lines
K-562 cells = assay: Cell cycle distribution by flow cytometry; format: cell-based, human; details: K-562, 72 hrs
Description: Samples of 1×10^6 Hep G2 cells were plated on a 6 cm tissue culture dish, and the cells were allowed to recover 24 hrs before any treatment. Thereafter, DMSO or a test compound (1 μM, 10 μM or 50 μM) was added to the cells for 1 hr in complete medium at 37° C., washed twice with PBS, and incubated in fresh media for the incubation time. Cell were harvested with trypsin and washed twice with PBS. Samples were fixed in 70% ethanol and stored at 4° C. for at least 24 hrs and then washed once with McIlvaine's buffer (0.2M Na2HPO4, 0.1M citric acid, pH=7.5) and once again with PBS. Samples were stained with PI (propidium iodide) staining solution (PBS containing 100 μg/ml, RNase A and 10 μg/ml PI [Sigma]), processed on a Coulter Elite flow cytometry, and the data analyzed with the Mutiplus AV program.

Leukemia cell lines = assay: NCI panel, average of cell lines; details: Homo sapiens, read-out: cytotoxicity GI50, average value of all the cancer cell lines
Melanoma cell lines = assay: NCI panel, average of cell lines; details: Homo sapiens, read-out: cytotoxicity GI50, average value of all the cancer cell lines
Renal Cancer cell lines = assay: NCI panel, average of cell lines; details: Homo sapiens, read-out: cytotoxicity GI50, average value of all the cancer cell lines
Colon Cancer cell lines = assay: NCI panel, average of cell lines; details: Homo sapiens, read-out: cytotoxicity GI50, average value of all the cancer cell lines

## 2-(6-(2-thioanisyl)-3-hexen-1,5-diynyl)benzonitrile [Compound 31]
CNS cancer cell SF-268
  Growth percentage: 164%
Breast cancer cell MCF-7
  Growth percentage: 62%
[1]
  Growth percentage: 100%

## 2-(6-(2-xylenyl)-3-hexen-1,5-diyne)benzonitrile [Compound 24]
CNS cancer cell SF-268
  Growth percentage: 111%
Breast cancer cell MCF-7
  Growth percentage: 101%
[1]
  Growth percentage: 129%

## N#Cc1ccccc1C#C/C=C\C#CCOC1CCCCO1 (centres unmarked) [Compound 1, 2-(7-(Tetrahydropyranyloxy)-3(Z)-hepten-1,5-diynyl)-benzonitrile]
Hep2,2,15
  IC50: > 10 µM
[2]
  IC50 Values of Cytotoxicities: —* (“—” means IC50 > 20 μg/ml)

## CCCCC#C/C=C\C#Cc1ccccc1C#N [Compound 3, 2-(3(Z)-Decen-1,5-diynyl)benzonitrile]
KB cell
  IC50: < 0.01 µM

## CCCCCC#C/C=C\C#Cc1ccccc1C#N [Compound 4, 2-(3(Z)-Undecen-1,5-diynyl)benzonitrile]
Hep2,2,15
  IC50: > 10 µM
KB cell
  IC50: < 0.01 µM

## CCCCC#C/C=C\C#Cc1ccccc1 [Compound 6, (3Z)-Decen-1,5-diynylbenzene]
Topoisomerase I
  topo I inhibitor, overall conclusion: not Topo I inhibitors

## N#Cc1ccccc1C#Cc1ccccc1C#CCOC1CCCCO1 (centres unmarked) [Compound 7, 2-(2-(3-Tetrahydro-pyranyl-5-oxy-1-propynylphenyl)ethynyl)benzonitrile]
Topoisomerase I; 0.87 μM compound
  inhibition of topo I: untwisting DNA was revealed
Topoisomerase I; 8.7 μM compound
  inhibition of topo I: no Topo I inhibition; also recorded: untwisting DNA was revealed
Topoisomerase I; 87 μM compound
  inhibition of topo I: no Topo I inhibition; also recorded: untwisting DNA was revealed
[2]
  IC50 Values of Cytotoxicities: — (“—” means IC50 > 20 μg/ml)

## N#Cc1ccccc1C#Cc1ccccc1C#CCCCOC1CCCCO1 (centres unmarked) [Compound 8]
Topoisomerase I; 0.87 μM compound
  inhibition of topo I: untwisting DNA was revealed
Topoisomerase I; 8.7 μM compound
  inhibition of topo I: no Topo I inhibition; also recorded: untwisting DNA was revealed
Topoisomerase I; 87 μM compound
  inhibition of topo I: no Topo I inhibition; also recorded: untwisting DNA was revealed
[2]
  IC50 Values of Cytotoxicities: — (“—” means IC50 > 20 μg/ml)

## CCCCC#Cc1ccccc1C#Cc1ccccc1C#N [Compound 9, 2-(2-(2-Hexynylphenyl)ethynyl)benzonitrile]
[2]
  IC50 Values of Cytotoxicities: — (“—” means IC50 > 20 μg/ml)

## CCCCCC#Cc1ccccc1C#Cc1ccccc1C#N [Compound 10, 2-(2-(2-Heptynylphenyl)ethynyl)benzonitrile]
[3]
  IC50 Values of Cytotoxicities: — (“—” means IC50 > 20 μg/ml)
[4]
  IC50 Values of Cytotoxicities: — (“—” means IC50 > 20 μg/ml)

## CCCCCCC#C/C=C\C#Cc1ccc(C#C/C=C\C#CCCCCCC)cc1 [Compound 11, 1,4-Bis-(3-(Z)-Dodecen-1,5-diynyl)benzene]
Topoisomerase I
  topo I inhibitor, overall conclusion: not topo I inhibitors

## CCCCCCC#C/C=C\C#Cc1ccc(-c2ccc(C#C/C=C\C#CCCCCCC)cc2)cc1 [Compound 12, 4,4′-Bis-(3-(Z)-Dodecen-1,5-diynyl)biphenyl]
Topoisomerase I
  topo I inhibitor, overall conclusion: not topo I inhibitors

## CCCCC#C/C=C\C#Cc1ccc(Cl)cc1 [Compound 13]
Hepa: human hepatoma
  IC50 Values of Cytotoxicities: — (key: “—” means IC50 > 20 μg/ml)
[5]
  IC50 Values of Cytotoxicities: — (key: “—” means IC50 > 20 μg/ml)

## CCCCCCC#C/C=C\C#Cc1ccc(C(F)(F)F)cc1 [Compound 18, 4-(3-(Z)-Dodecen-1,5-diynyl)trifluoromethylbenzene]
Topoisomerase I
  topo I inhibitor, overall conclusion: displayed topo I inhibitory activities

## CCCCCCC#C/C=C\C#Cc1cccc(C(F)(F)F)c1 [Compound 19, 3-(3-(Z)-Dodecen-1,5-diynyl)trifluoromethylbenzene]
[3]
  IC50 Values of Cytotoxicities: — (“—” means IC50 > 20 μg/ml)

## CCCCCCC#C/C=C\C#Cc1ccc([N+](=O)[O-])cc1 [Compound 21, 4-nitro-1-(3-(Z)-dodecen-1,5-diynyl)benzene]
[4]; Homo sapiens, read-out: IC50 Values of Cytotoxicities
  IC50: > 20 µg/mL

## CCCCCCC#C/C=C\C#Cc1ccccc1C(=O)O [Compound 22, 2-(3-(Z)-Dodecen-1,5-diynyl)benzoate]
[2]
  IC50 Values of Cytotoxicities: — (“—” means IC50 > 20 μg/ml)

## CCCCCCC#C/C=C\C#Cc1ccc(C(C)=O)cc1 [Compound 23, 4-(3-(Z)-Dodecen-1,5-diynyl)acetophenone]
Topoisomerase I
  topo I inhibitor, overall conclusion: displayed topo I inhibitory activities
Hepa: human hepatoma
  IC50 Values of Cytotoxicities: — (key: “—” means IC50 > 20 μg/ml)
[6]
  IC50 Values of Cytotoxicities: — (key: “—” means IC50 > 20 μg/ml)
[7]
  IC50 Values of Cytotoxicities: — (key: “—” means IC50 > 20 μg/ml)

## COc1ccc(C#CC=CC#Cc2ccccc2C#N)cc1 [Compound 25]
CNS cancer cell SF-268
  Growth percentage: 91%
Breast cancer cell MCF-7
  Growth percentage: 90%
[1]
  Growth percentage: 48%

## N#Cc1ccccc1C#CC=CC#Cc1ccccn1 [Compound 27, 2-(6-(2-pyridinyl)-3-hexen-1,5-diynyl)benzonitrile]
CNS cancer cell SF-268
  Growth percentage: 83%
[8]
  GI50: 27.3 µM
[9]
  GI50: 21.2 µM
Breast cancer cell MCF-7
  Growth percentage: 49%
[10]
  GI50: 19.6 µM
CNS Cancer cell lines
  GI50: 20.9 µM
Breast Cancer cell lines
  GI50: 14.3 µM
K-562 cells
  accumulation of G2/M stage cells: an accumulation of G2/M stage cells
Leukemia cell lines
  GI50: 12.8 µM
Melanoma cell lines
  GI50: 14.2 µM
Renal Cancer cell lines
  GI50: 21.7 µM
[1]
  Growth percentage: 23* %

## Cc1ccc(C#CC=CC#Cc2ccccc2C#N)cc1 [Compound 28, 2-(6-(4-tolyl)-3-hexen-1,5-diynyl)benzonitrile]
CNS cancer cell SF-268
  Growth percentage: 105%
Breast cancer cell MCF-7
  Growth percentage: 80%
[1]
  Growth percentage: 96%

## N#Cc1ccccc1C#CC=CC#Cc1cccs1 [Compound 29, 2-(6-(2-thienyl)-3-hexen-1,5-diynyl)benzonitrile]
CNS cancer cell SF-268
  Growth percentage: 96%
Breast cancer cell MCF-7
  Growth percentage: 49%
[1]
  Growth percentage: 34%

## N#Cc1ccccc1C#CC=CC#Cc1cnccn1 [Compound 30, 2-(6-(2-pyrazinyl)-3-hexen-1,5-diynyl)benzonitrile]
CNS cancer cell SF-268
  Growth percentage: 84%
[8]
  GI50: 38.1 µM
[9]
  GI50: 33.6 µM
Breast cancer cell MCF-7
  Growth percentage: 73%
[10]
  GI50: 11.8 µM
CNS Cancer cell lines
  GI50: 32.2 µM
Breast Cancer cell lines
  GI50: 33.3 µM
K-562 cells
  accumulation of G2/M stage cells: an accumulation of G2/M stage cells
Leukemia cell lines
  GI50: 5.05 µM
Melanoma cell lines
  GI50: 18.7 µM
Renal Cancer cell lines
  GI50: 27 µM
[1]
  Growth percentage: 8* %
Colon Cancer cell lines
  GI50: 7.54 µM

## N#Cc1ccccc1C#CC=CC#Cc1ccccc1N [Compound 32, 2-[6-(o-anilinyl)-3-hexen-1,5-diynyl]benzonitrile]
CNS cancer cell SF-268
  Growth percentage: 27* %
[8]
  GI50: 1.55 µM
[9]
  GI50: 3.13 µM
Breast cancer cell MCF-7
  Growth percentage: 36%
[10]
  GI50: 1.7 µM
CNS Cancer cell lines
  GI50: 9.44 µM
Breast Cancer cell lines
  GI50: 2 µM
K-562 cells
  accumulation of G2/M stage cells: an accumulation of G2/M stage cells
Leukemia cell lines
  GI50: 0.43 µM
Melanoma cell lines
  GI50: 0.77 µM
Renal Cancer cell lines
  GI50: 0.66 µM
[1]
  Growth percentage: 8* %
Colon Cancer cell lines
  GI50: 0.47 µM

## N#Cc1ccccc1C#CC=CC#Cc1ccc(N)cc1 [Compound 33, 2-[6-(p-anilinyl)-3-hexen-1,5-diynyl]benzonitrile]
CNS cancer cell SF-268
  Growth percentage: 92%
Breast cancer cell MCF-7
  Growth percentage: 100%
[1]
  Growth percentage: 94%

## FC(F)(F)c1ccc(C#Cc2ccccc2C#Cc2ccc(C(F)(F)F)cc2)cc1 [Compound 42]
CNS cancer cell SF-268
  Growth percentage: 55%
Breast cancer cell MCF-7
  Growth percentage: 37%
[1]
  Growth percentage: 78%

## CC[C@@]1(O)C(=O)OCc2c1cc1n(c2=O)Cc2cc3ccccc3nc2-1 [camptothecin, reference compound]
Topoisomerase I
  inhibition of topo I: less topo I inhibitory activity; also recorded: observable inhibition of topo I
